# Reference: PMC5099944, “Design, synthesis and biological evaluation of hybrids of β-carboline and salicylic acid as potential anticancer and apoptosis inducing agents” (Scientific Reports, 2016)
# Where two headings read alike, the source gives them in different places.
# Tests used:
# H460 cells = test: MTT assay, proliferation of H460 cells; format: cell-based; conditions: NCI-H460, 48 h, H460 human lung cancer cells, read-out: In vitro cytotoxicity (IC50) H460
# Method: (§1) The in vitro antitumor activities of the synthesized compounds 7a-l and 8a-l against five human cancer cells were evaluated in MTT assays using 5-fluorouracil (5-FU) and harmine as positive controls. These cells are human hepatocellular carcinoma cells (SMMC-7721 and Hep G2), human colon cancer cell lines (HCT116), human bladder carcinoma cells (EJ), and human lung cancer cells (H460).
# (§2) Hepatocellular carcinoma cells (SMMC-7721 and Hep G2), Human colon cancer cell lines (HCT116), human bladder carcinoma cells (EJ) or human lung cancer cells (H460) at 10^4 cells per well were cultured in 10% FBS DMEM in 96-well flat-bottom microplates overnight. The cells were incubated in triplicate with, or without, different concentrations of each test compound for 48 h. During the last 4 h incubation, 30 μL of tetrazolium dye (MTT) solution (5 mg mL^−1) was added to each well. The resulting MTT-formazan crystals were dissolved in 150 μL DMSO, and absorbance was measured spectrophotometrically at 570 nm using an ELISA plate reader. The inhibition induced by each test compound at the indicated concentrations was expressed as a percentage. The concentration required for 50% inhibition (IC50) was calculated using the software (GraphPadPrism Version 4.03).
# HCT116 cells = test: MTT assay, proliferation of HCT116 cells; format: cell-based; conditions: Homo sapiens, HCT-116, 48 h, read-out: In vitro cytotoxicity (IC50) HCT116
# Method: as §1, §2
# Hep G2 cells = test: MTT assay, proliferation of Hep G2 cells; format: cell-based; conditions: Homo sapiens, HepG2, 48 h, read-out: In vitro cytotoxicity (IC50) Hep G2
# Method: as §1, §2
# SMMC-7721 cells = test: MTT assay, proliferation of SMMC-7721 cells; format: cell-based, human
# Method: as §1, §2
# EJ cells = test: MTT assay, proliferation of EJ cells; format: cell-based; conditions: 48 h, EJ human bladder carcinoma cells, read-out: In vitro cytotoxicity (IC50) EJ
# Method: as §1, §2
# [1] = tested on: human cancer cells (SMMC-7721, Hep G2, HCT116, EJ, H460); test: MTT assay, summary statements across several human cancer cell lines; format: cell-based; conditions: Homo sapiens; cancer cell lines tested (SMMC-7721, Hep G2, HCT116); MTT; read-out: Antitumor activities (IC50) of capped analogs
# Method: as §1, §2
# [2] = Homo sapiens, SMMC-7721, 48 h, read-out: In vitro cytotoxicity (IC50) SMMC-7721, MTT assay, 48 h, SMMC-7721 human hepatocellular carcinoma cells
Structure (SMILES),IC50 (H460 cells) [µM],IC50 (HCT116 cells) [µM],IC50 (Hep G2 cells) [µM],IC50 (SMMC-7721 cells; [2]) [µM],IC50 (EJ cells) [µM],"IC50 (SMMC-7721 cells; Homo sapiens, SMMC-7721, 48 h, read-out: In vitro cytotoxicity (IC50) SMMC-7721) [µM]","inhibition at 25 µM (SMMC-7721 cells; Homo sapiens, SMMC-7721, 25 μM, 48 h, MTT assay, read-out: Inhibition of SMMC-7721 cell proliferation) [%]",IC50 [1] [µM],"IC50 (SMMC-7721 cells; human, 48 h) [µM]"
"Cc1ccccc1C(=O)NCCCCCNC(=O)c1cc2c(cn1)[nH]c1ccccc12 [7g, N-(5-(2-Methylbenzamido)pentyl)-9H-pyrido[3,4-b]indole-3-carboxamide]",19.4,17.1,14.3,15.9,15.3,,,,
"Cc1ccccc1C(=O)NCCCCNC(=O)c1cc2c([nH]c3ccccc32)c(C)n1 [7e, 1-Methyl-N-(4-(2-methylbenzamido)butyl)-9H-pyrido[3,4-b]indole-3-carboxamide]",20.1,14.8,15.2,17.8,13.3,,,,
"Cc1nc(C(=O)NCCCNC(=O)c2ccccc2O)cc2c1[nH]c1ccccc12 [8b, N-(3-(2-Hydroxybenzamido)propyl)−1-methyl-9H-pyrido[3,4-b]indole-3-carboxamide]",22.2,13.6,,19.1,15.3,,,,
"Cc1ccccc1C(=O)NCCCCCNC(=O)c1cc2c([nH]c3ccccc32)c(C)n1 [7h, 1-Methyl-N-(5-(2-methylbenzamido)pentyl)-9H-pyrido[3,4-b]indole-3-carboxamide]",13.2,15.8,11.3,12.8,12.1,,,,
"COc1ccc(-c2nc(C(=O)NCCCCCNC(=O)c3ccccc3C)cc3c2[nH]c2ccccc23)cc1 [7i, 1-(4-Methoxyphenyl)-N-(5-(2-methylbenzamido)pentyl)-9H-pyrido[3,4-b]indole-3-carboxamide]",27.5,45.2,> 50,38.2,> 50,,,,
"O=C(NCCCCNC(=O)c1ccccc1O)c1cc2c(cn1)[nH]c1ccccc12 [8d, N-(4-(2-Hydroxybenzamido)butyl)-9H-pyrido[3,4-b]indole-3-carboxamide]",15.2,15.9,11.7,13,12.1,,,,
"COc1ccc(-c2nc(C(=O)NCCCNC(=O)c3ccccc3C)cc3c2[nH]c2ccccc23)cc1 [7c, 1-(4-Methoxyphenyl)-N-(3-(2-methylbenzamido)propyl)-9H-pyrido[3,4-b]indole-3-carboxamide]",> 50,> 50,> 50,> 50,> 50,,,,
"COc1ccc(-c2nc(C(=O)NCCCCNC(=O)c3ccccc3C)cc3c2[nH]c2ccccc23)cc1 [7f, 1-(4-Methoxyphenyl)-N-(4-(2-methylbenzamido)butyl)-9H-pyrido[3,4-b]indole-3-carboxamide]",38.4,32.6,31.2,25.6,29.4,,,,
"COc1ccc(-c2nc(C(=O)NCCCCCCNC(=O)c3ccccc3O)cc3c2[nH]c2ccccc23)cc1 [8l, N-(6-(2-Hydroxybenzamido)hexyl)-1-(4-methoxyphenyl)-9H-pyrido[3,4-b]indole-3-carboxamide]",> 50,> 50,42,> 50,,,,,
"O=C(NCCCCCNC(=O)c1ccccc1O)c1cc2c(cn1)[nH]c1ccccc12 [8g, N-(5-(2-Hydroxybenzamido)pentyl)-9H-pyrido[3,4-b]indole-3-carboxamide]",12.5,9.18,9.12,10.7,8.71,,,,
"Cc1ccccc1C(=O)NCCCNC(=O)c1cc2c([nH]c3ccccc32)c(C)n1 [7b, 1-Methyl-N-(3-(2-methylbenzamido)propyl)-9H-pyrido[3,4-b]indole-3-carboxamide]",30.5,28.9,23.7,27.3,23.2,,,,
"Cc1ccccc1C(=O)NCCCCCCNC(=O)c1cc2c(cn1)[nH]c1ccccc12 [7j, N-(6-(2-Methylbenzamido)hexyl)-9H-pyrido[3,4-b]indole-3-carboxamide]",15.3,26.6,28,23.3,18.2,,,,
"Cc1ccccc1C(=O)NCCCCCCNC(=O)c1cc2c([nH]c3ccccc32)c(C)n1 [7k, 1-Methyl-N-(6-(2-methylbenzamido)hexyl)-9H-pyrido[3,4-b]indole-3-carboxamide]",14.3,15.3,16.9,11.3,13.7,,,,
"Cc1nc(C(=O)NCCCCCCNC(=O)c2ccccc2O)cc2c1[nH]c1ccccc12 [8k, N-(6-(2-Hydroxybenzamido)hexyl)-1-methyl-9H-pyrido[3,4-b]indole-3-carboxamide]",11.4,10.7,13.6,10.1,13.2,,,,
"COc1ccc(-c2nc(C(=O)NCCCCNC(=O)c3ccccc3O)cc3c2[nH]c2ccccc23)cc1 [8f, N-(4-(2-Hydroxybenzamido)butyl)-1-(4-methoxyphenyl)-9H-pyrido[3,4-b]indole-3-carboxamide]",22.8,18.2,17.7,20.1,15,,,,
"O=C(NCCCNC(=O)c1ccccc1O)c1cc2c(cn1)[nH]c1ccccc12 [8a, N-(3-(2-Hydroxybenzamido)propyl)-9H-pyrido[3,4-b]indole-3-carboxamide]",25.5,20.1,18.9,22.6,15.9,,,,
"Cc1nc(C(=O)NCCCCNC(=O)c2ccccc2O)cc2c1[nH]c1ccccc12 [8e, N-(4-(2-Hydroxybenzamido)butyl)−1-methyl-9H-pyrido[3,4-b]indole-3-carboxamide]",11.9,9.36,9.26,7.93,9.01,,,,
"COc1ccc(-c2nc(C(=O)NCCCCCNC(=O)c3ccccc3O)cc3c2[nH]c2ccccc23)cc1 [8i, N-(5-(2-Hydroxybenzamido)pentyl)-1-(4-methoxyphenyl)-9H-pyrido[3,4-b]indole-3-carboxamide]",38.5,> 50,30.8,46.8,> 50,,,,
"COc1ccc(-c2nc(C(=O)NCCCCCCNC(=O)c3ccccc3C)cc3c2[nH]c2ccccc23)cc1 [7l, 1-(4-Methoxyphenyl)-N-(6-(2-methylbenzamido)hexyl)-9H-pyrido[3,4-b]indole-3-carboxamide]",> 50,> 50,,> 50,,,,,
"Cc1ccccc1C(=O)NCCCCNC(=O)c1cc2c(cn1)[nH]c1ccccc12 [7d, N-(4-(2-Methylbenzamido)butyl)-9H-pyrido[3,4-b]indole-3-carboxamide]",23.2,21.4,19.1,24.3,18.4,,,,
"COc1ccc2c(c1)[nH]c1c(C)nccc12 [harmine, reference compound]",,46.7,55.3,,,49.1,,,
"O=C(O)c1ccccc1O [SA, salicylic acid]",,,,,,,~15,,
"O=C(NCCCCCCNC(=O)c1ccccc1O)c1cc2c(cn1)[nH]c1ccccc12 [8j, N-(6-(2-Hydroxybenzamido)hexyl)-9H-pyrido[3,4-b]indole-3-carboxamide]",21.5,18.6,17.2,13.4,16.5,,,,
"CC(=O)NCCCCCNC(=O)c1cc2c([nH]c3ccccc32)c(C)n1 [10a, N-(5-acetamidopentyl)-1-methyl-9H-pyrido[3,4-b]indole-3-carboxamide]",,> 50,> 50,58.6 ± 6.7,,,,> 50,> 50
"Cc1ccccc1C(=O)NCCCNC(=O)c1cc2c(cn1)[nH]c1ccccc12 [7a, N-(3-(2-Methylbenzamido)propyl)-9H-pyrido[3,4-b]indole-3-carboxamide]",31.1,36,32,34.7,25.3,,,,
"COc1ccc(-c2nc(C(=O)NCCCNC(=O)c3ccccc3O)cc3c2[nH]c2ccccc23)cc1 [8c, N-(3-(2-Hydroxybenzamido)propyl)-1-(4-methoxyphenyl)-9H-pyrido[3,4-b]indole-3-carboxamide]",> 50,33.2,45.8,36,38.6,,,,
"Cc1nc(C(=O)NCCCCCNC(=O)c2ccccc2)cc2c1[nH]c1ccccc12 [10b, N-(5-benzamidopentyl)-1-methyl-9H-pyrido[3,4-b]indole-3-carboxamide]",,> 50,> 50,> 100,,,,> 50,> 50
